The test system of assay [1] is α-amylase. The assay can be described thus: α-amylase inhibitory activity assay (starch, DNS reagent). It counts as biochemical. To be noted: mean ± SD (n = 3). The procedure: S1.3. Determination of α-amylase inhibitory activity
Phosphate buffer (20 mM, pH 6.9, containing 6 mM NaCl) was used as the […]
µL, 1%, w/v) were mixed and incubated in a 96-well microplate at 37 °C for 10 min.
Then, α-amylase solution (50 µL, 0.2 U/mL) was added and the compound was incubated at 37 °C for an additional 10 min. The reaction was stopped by addition of […]
microplate was immediately heated in 95 °C water bath for 10 min. When the reaction solution cooled to room temperature, allsamples were diluted by adding distilled water (50 µL), and then their absorbance was measured using a microplate reader at […]
starch solution) at 540 nm, thus the inhibitory activity was calculated as (Acontrol-Asample)/Acontrol×100%, in which Asample was the absorbance of the sample and Acontrol was the absorbance of the phosphate buffer control without test samples. Acarbose was used as the positive control.

Assay [2] is described as follows: ABTS radical scavenging assay. To be noted: mean ± SD (n = 3).
The target in assay [3] is fatty acid synthase (FAS) (Gallus gallus, UniProt P12276). The assay can be described thus: FAS inhibitory activity assay (NADPH absorbance at 340 nm).
Sequence of fatty acid synthase (FAS) (P12276 2-2512 limits assumed): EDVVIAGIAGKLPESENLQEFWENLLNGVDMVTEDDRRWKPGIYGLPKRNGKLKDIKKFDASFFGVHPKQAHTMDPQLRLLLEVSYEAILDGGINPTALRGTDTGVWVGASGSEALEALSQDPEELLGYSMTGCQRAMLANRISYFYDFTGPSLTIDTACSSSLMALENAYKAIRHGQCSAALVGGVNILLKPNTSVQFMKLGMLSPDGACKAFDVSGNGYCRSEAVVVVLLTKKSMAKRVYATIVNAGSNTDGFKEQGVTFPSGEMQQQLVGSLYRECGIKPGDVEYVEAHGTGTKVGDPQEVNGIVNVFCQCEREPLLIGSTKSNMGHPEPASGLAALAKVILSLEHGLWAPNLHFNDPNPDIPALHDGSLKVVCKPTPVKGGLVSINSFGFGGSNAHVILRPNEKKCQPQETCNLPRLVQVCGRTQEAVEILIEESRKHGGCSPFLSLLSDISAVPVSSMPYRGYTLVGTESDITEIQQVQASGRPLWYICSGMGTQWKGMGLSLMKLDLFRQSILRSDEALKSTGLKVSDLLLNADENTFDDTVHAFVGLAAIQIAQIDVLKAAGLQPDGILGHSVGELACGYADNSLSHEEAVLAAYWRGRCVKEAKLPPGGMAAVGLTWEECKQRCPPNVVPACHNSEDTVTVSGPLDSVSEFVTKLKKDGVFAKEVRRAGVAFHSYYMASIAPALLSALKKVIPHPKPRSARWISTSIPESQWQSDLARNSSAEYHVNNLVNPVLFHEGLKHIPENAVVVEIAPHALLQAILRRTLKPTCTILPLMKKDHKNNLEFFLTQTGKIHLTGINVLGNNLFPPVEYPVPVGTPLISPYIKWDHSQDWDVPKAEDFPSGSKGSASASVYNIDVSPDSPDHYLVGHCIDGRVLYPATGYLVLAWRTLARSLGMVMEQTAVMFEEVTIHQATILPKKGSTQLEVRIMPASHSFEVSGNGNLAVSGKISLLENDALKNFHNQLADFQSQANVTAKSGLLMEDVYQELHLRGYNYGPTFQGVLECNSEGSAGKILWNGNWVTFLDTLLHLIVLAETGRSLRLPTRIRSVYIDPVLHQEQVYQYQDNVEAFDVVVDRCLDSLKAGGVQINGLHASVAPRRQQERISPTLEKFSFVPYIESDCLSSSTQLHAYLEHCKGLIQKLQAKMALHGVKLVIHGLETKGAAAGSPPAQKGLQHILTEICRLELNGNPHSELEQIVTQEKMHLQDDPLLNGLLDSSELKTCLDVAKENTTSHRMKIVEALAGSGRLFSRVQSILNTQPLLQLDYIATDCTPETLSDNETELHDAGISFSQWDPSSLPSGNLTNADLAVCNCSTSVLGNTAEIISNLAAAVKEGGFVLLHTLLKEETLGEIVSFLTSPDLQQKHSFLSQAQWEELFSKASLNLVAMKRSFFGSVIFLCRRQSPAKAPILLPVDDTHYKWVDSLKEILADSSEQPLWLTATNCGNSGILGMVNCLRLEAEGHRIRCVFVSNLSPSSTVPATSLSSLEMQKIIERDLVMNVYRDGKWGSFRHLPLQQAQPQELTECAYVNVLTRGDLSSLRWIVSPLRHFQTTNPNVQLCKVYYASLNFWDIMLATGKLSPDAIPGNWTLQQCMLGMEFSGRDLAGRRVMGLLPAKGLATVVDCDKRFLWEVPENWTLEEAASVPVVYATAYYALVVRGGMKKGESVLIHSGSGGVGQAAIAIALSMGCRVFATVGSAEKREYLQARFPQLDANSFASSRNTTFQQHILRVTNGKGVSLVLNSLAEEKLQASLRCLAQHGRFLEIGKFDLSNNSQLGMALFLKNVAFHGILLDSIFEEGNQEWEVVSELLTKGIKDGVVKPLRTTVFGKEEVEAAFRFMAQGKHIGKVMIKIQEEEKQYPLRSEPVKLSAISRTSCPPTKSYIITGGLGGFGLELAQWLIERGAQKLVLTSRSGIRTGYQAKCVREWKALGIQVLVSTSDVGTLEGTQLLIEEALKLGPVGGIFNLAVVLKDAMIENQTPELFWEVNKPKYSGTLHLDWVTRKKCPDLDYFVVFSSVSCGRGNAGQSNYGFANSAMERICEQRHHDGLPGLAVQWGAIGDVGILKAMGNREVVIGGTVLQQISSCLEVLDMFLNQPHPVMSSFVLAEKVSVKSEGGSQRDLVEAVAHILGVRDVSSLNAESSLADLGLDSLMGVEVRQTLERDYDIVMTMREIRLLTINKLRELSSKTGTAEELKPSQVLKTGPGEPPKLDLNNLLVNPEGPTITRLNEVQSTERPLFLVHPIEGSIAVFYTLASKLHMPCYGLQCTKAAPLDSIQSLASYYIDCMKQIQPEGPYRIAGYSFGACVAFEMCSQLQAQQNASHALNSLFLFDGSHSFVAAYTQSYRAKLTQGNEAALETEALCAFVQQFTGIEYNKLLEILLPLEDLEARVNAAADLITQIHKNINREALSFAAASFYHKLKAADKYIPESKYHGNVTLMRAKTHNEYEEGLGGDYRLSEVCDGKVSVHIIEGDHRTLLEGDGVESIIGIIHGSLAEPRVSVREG
Experimental: Determination of FAS inhibitory activity
diluted with potassium phosphate buffer (0.1 M, pH 7.0). Sample solution (100 L, 20-2000 μM, 37 °C) and FAS substrates (1.8 mL, 37 °C) were mixed in a cuvette, and then FAS solution (100 L, 37 °C, isolated from chicken liver and kept in ice-bath before use) was added. The absorbance of reaction compound was monitored by a
UV-vis spectrophotometer at 340 nm in 1 min. The inhibitory effect was calculated by the following equation: FAS inhibition (%) = (Acontrol- Asample)/Acontrol×100%, where Acontrolrepresented the FAS activity in the control group (phosphate buffer instead of sample solution), Asamplerepresented the FAS activity in the sample groups. The FAS activity was calculated as (A0 - A1)/1 min, in which A0 was the absorbance of the
reaction compound when the FAS was added, and A1 was the absorbance of the
reaction compound after reaction 1 min. Orlistat was used as the positive control.
FAS substrates: 0.1 M potassium phosphate buffer (pH 7.0), 1 mM ethylene-diaminetetraacetic acid (EDTA), 1 mM dithiothreitol, 3 M acetyl-coenzyme A, 10 M methylmalonyl coenzyme A, 35 M NADPH.
The nature of assay [4]: DPPH radical scavenging assay. The conditions noted are these: mean ± SD (n = 3), NA = no activity. The procedure:
S1.4. DPPH radical scavenging assay
The DPPH radical scavenging assay was used to evaluate the antioxidant activity of compounds 1-10. In a 96-well microplate, 100 µL of DPPH solution (200 µM in ethanol) was added to 100 µL sample in ethanol at graded concentrations ranging from 7 to 500 µM. The compound was incubated in the dark at room temperature for […]
Background: DPPH is a stable violet radical that fades when it is reduced.

In assay [5] the test system is α-glucosidase. The assay can be described thus: α-glucosidase inhibitory activity assay (pNPG substrate). The class given is biochemical, yeast. The conditions noted are these: for α-Glucosidase Inhibition at 0.1 mM: mean ± SD (n = 3), NA = no activity; for α-glucosidase inhibitory activity (in words): compared with positive control acarbose. The procedure: S1. Determination of bioactivities […]
S1.2. Determination of α-glucosidase inhibitory activity […]
diluted with phosphate buffer (0.1 M, pH 6.8). […]
and 4-nitrophenyl α-D-glucopyranoside (pNPG) solution (50 µL, 5 mM) were mixed
(1 picture or pasted object on this page, not shown here) […]
and incubated in a 96-well microplate at37 °C for 5 min. α-Glucosidase from yeast (50 µL, 0.2 U/mL) was added and incubated at 37 °C for another 30 min. Finally, 50 µL of Na2CO3 (1M) was added to terminate the reaction. The absorbance of compound was measured using a microplate reader at a wavelength 405 nm. The background absorbance (phosphate buffer instead of substrate pNPG) of all samples […]
calculated by the following equation: α-glucosidase inhibition (%) = (Acontrol-Asample)/Acontrol×100%, where Acontrolrepresented the absorbance of phosphate buffer control without testsamples, Asample represented the absorbance of test samples.
Acarbose was used as the positive control. […]

The source of these data is article PMC9822135, “Chemical Constituents from the Leaves of Ligustrum robustum and Their Bioactivities” (Molecules, 2023).

Read-outs that look alike come from different tables or passages of the source.

Regarding `CC/C=C/CCO[C@@H]1O[C@H](COC(=O)C=Cc2ccc(O)cc2)[C@@H](O)[C@H](O[C@@H]2O[C@@H](C)[C@H](O)[C@@H](O)[C@H]2O)[C@H]1O` [Compound 1], the “α-Amylase Inhibition at 0.1 mM” value in assay [1] stood at 27.9 ± 6.4 bc %. Besides, in assay [2], the IC50 was 5.65 ± 0.19 µM.

As to `C=C(C)CO[C@@H]1O[C@H](COC(=O)C=Cc2ccc(O)cc2)[C@@H](O)[C@H](O[C@@H]2O[C@@H](C)[C@H](O)[C@@H](O)[C@H]2O)[C@H]1O` [Compound 2], the IC50 in assay [3] (read-out: FAS IC50, mean ± SD (n = 3), NA = no activity, FAS isolated from chicken liver) was found to be 4.1 ± 0.12 µM; in assay [2], 103 ± 4 µM. The “α-Amylase Inhibition at 0.1 mM” value in assay [1] was 24.0 ± 1.5 bc %.

On to `C[C@@H]1O[C@@H](O[C@H]2[C@H](O)[C@@H](COC(=O)C=Cc3ccc(O)cc3)OC(O)[C@@H]2O)[C@H](O)[C@H](O)[C@H]1O` (some centres unmarked) [Compound 3], for which the IC50 in assay [3] was 6.25 ± 0.2 µM; in assay [4], over 250 µM; in assay [2] it was 12.04 ± 0.08 µM. The “α-Amylase Inhibition at 0.1 mM” value in assay [1] turned out to be 29.8 ± 1.8 bc %.

Take `CC1OC(OC2C(O)C(O)OC(CO)C2OC(=O)C=Cc2ccc(O)cc2)C(O)C(O)C1O` (centres unmarked) [Compound 4]: the IC50 in assay [3] stood at 10.5 ± 0.32 µM; in assay [2] it was 11.2 ± 0.4 µM. For the same molecule, the “α-Amylase Inhibition at 0.1 mM” value in assay [1] is 25.6 ± 1.0 bc %.

As for `C[C@@H]1O[C@@H](O[C@@H]2[C@@H](O)[C@@H](O)[C@H](O[C@H]3[C@H](O)[C@@H](COC(=O)C=Cc4ccc(O)cc4)OC(O)[C@@H]3O)O[C@H]2C)[C@H](O)[C@H](O)[C@H]1O` (some centres unmarked) [Compound 5], the IC50 is 9.75 ± 0.24 µM in assay [3], over 250 µM in assay [4] and 15.5 ± 0.36 µM in assay [2]. The “α-Amylase Inhibition at 0.1 mM” value in assay [1] stood at 26.5 ± 4.0 bc %.

Take `C[C@@H]1O[C@@H](O[C@H]2[C@H](OC(=O)/C=C/c3ccc(O)c(O)c3)[C@@H](CO)OC(O)[C@@H]2O)[C@H](O)[C@H](O)[C@H]1O` (stereo partly drawn) [Compound 6, 3-O-(α-L-rhamnopyranosyl)-4-O-(trans-caffeoyl)-D-glucopyranose]: the IC50 in assay [4] is 46.7 ± 1.58 µM; in assay [2], 17 ± 0.45 µM. Besides, in assay [1], the “α-Amylase Inhibition at 0.1 mM” value worked out at 23.0 ± 0.7 c %.

`O=c1c(O[C@@H]2O[C@H](CO)[C@@H](O)[C@H](O)[C@H]2O)c(-c2ccc(O)cc2)oc2cc(O[C@@H]3O[C@H](CO)[C@@H](O)[C@H](O)[C@H]3O)cc(O)c12` [Compound 7, kaempferol 3,7-diglucoside]: the IC50 stood at 8.1 ± 0.37 µM in assay [3] and 9.34 ± 0.04 µM in assay [2]. Further, in assay [1], the “α-Amylase Inhibition at 0.1 mM” value was found to be 31.8 ± 0.5 b %. Besides, the “α-Glucosidase Inhibition at 0.1 mM” value in assay [5] turned out to be 15.6 ± 0.9 c %. For the same molecule, the “α-glucosidase inhibitory activity (in words)” value in assay [5] is “moderate and weaker than acarbose”.

For the molecule `COc1cc([C@H]2c3cc(O[C@@H]4O[C@H](CO)[C@@H](O)[C@H](O)[C@H]4O)c(OC)cc3C[C@@](O)(CO)[C@@H]2CO)ccc1O` [Compound 8, (+)-cycloolivil 6-O-β-D-glucopyranoside], the IC50 in assay [3] is 8.01 ± 0.26 µM; in assay [4], over 250 µM; in assay [2] it was 29.1 ± 1.11 µM. Also, the “α-Amylase Inhibition at 0.1 mM” value in assay [1] was 28.5 ± 2.7 bc %.

With `COC(=O)C=Cc1ccc(O)cc1` [Compound 9], the values for the IC50 in assay [3], in assay [4] and in assay [2] were 15.4 ± 0.42 µM, over 250 µM and 8.78 ± 0.09 µM, respectively. Besides, the “α-Amylase Inhibition at 0.1 mM” value in assay [1] came to 29.5 ± 0.6 bc %. Besides, in assay [5], the “α-Glucosidase Inhibition at 0.1 mM” value stood at 33.8 ± 2.9 b %. Moreover, in assay [5], the “α-glucosidase inhibitory activity (in words)” value was “moderate and weaker than acarbose”.

As for `OCCc1ccc(O)cc1` [Compound 10, 4-hydroxyphenylethanol], in assay [1], the “α-Amylase Inhibition at 0.1 mM” value stood at 16.2 ± 5.0 d %. In assay [2], this molecule displayed an IC50 of 3.41 ± 0.08 µM.

Take `O=C1O[C@H]([C@@H](O)CO)C(O)=C1O` [L-(+)-ascorbic acid, reference compound]: the IC50 came to 13.66 ± 0.13 µM in assay [4] and 10.1 ± 0.19 µM in assay [2].

Broadly, the IC50 is the concentration needed to halve the response being measured.
